Experimental data from patent US20250136652A1, “FUSION PROTEIN FOR TARGETING RECOMBINANT PROTEINS FOR DEGRADATION” (The Regents of the University of California, priority 2022, published 2025).
Blank lines part the entries; values can stand above or below the molecule they belong to. Residues, ends and D or L forms follow the SMILES beside them. *: point of attachment. Cbz = O=C(OCc1ccccc1)*

What was measured:
[1] = test system: STUD degradation of GFP (ubiquitin proteasome pathway); experiment: Inhibitor assay: rescue of GFP fluorescence in Jurkat T cells expressing SynZip STUD and GFP target; type: cell-based; conditions: 5 hours; for GFP fluorescence rescue relative to DMSO vehicle control: cells express functional STUD and GFP target
Method: FIG. 3: STUD degradation of GFP is mediated by the cullins in UPP. Representative flow cytometry distributions of GFP fluorescence of Jurkat T cells expressing the SynZip STUD described in FIG. 2B treated with one of three drugs or a DMSO vehicle control. Distributions are representative of three independent experiments.
Using the 2 plasmid system as described above, we lentivirally transduce Jurkat T cells. 72 hours after removal of lentivirus, we treat these Jurkat T cells and an untransduced control cell line with either 5 μM of the proteasomal inhibitor MG-132, 1 μM of the cullin ring ligase inhibitor MLN4924, 100 nM of the lysosomal inhibitor Bafilomycin A1, or DMSO vehicle control and incubate at 37 C for 5 hours. […] FIG. 3.
Flow cytometry: All flow cytometry data was obtained using a LSR Fortessa (BD Biosciences). All assays were run in a 96-well round bottom plate (Fisher Scientific #08-772-2C). Samples were prepared by pelleting cells in the plate using centrifugation at 400×g for 4 minutes. Supernatant was then removed and 200 μL of PBS (UCSF Cell Culture facility) was used to wash cells. The cells were again pelleted as described above and supernatant was removed. Cells were resuspended in 120 μL of Flow buffer (PBS+2% FBS) and mixed by pipetting prior to flow cytometry assay.
(§1) Inhibitor Assays: 100,000 cells were plated in a 96 well round bottom plate with either 5 μM MG-132 (Sigma-Aldrich #M7449-200UL), 1 μM MLN4924 (Active Biochem #A-1139), 100 nM Bafilomycin A1 (Enzo Life Sciences #BML-CM110-0100), or DMSO vehicle control and incubated at 37 C for 5 hours. After incubation, cells were pelleted by centrifugation at 400×g for 4 minutes. Supernatant was then removed and cells were washed once with 200 μL PBS. Cells were pelleted again (400×g for 4 minutes) and resuspended in flow buffer (PBS+2% FBS) for assay by flow cytometry.

[2] = test system: STUD knockdown of anti-CD19 4-1BB CD3zeta CAR; experiment: MLN4924 rescue of STUD knockdown of CD19BBz CAR expression in CD8+ primary T cells; type: cell-based, human; conditions: 1 μM MLN4924, 5 hours, 37 C
Method: FIG. 4D. Plasmid in FIG. 4A is transduced into CD8+ primary T cells and anti-CD19 4-1BB CD3zeta CAR expression and activation is assayed. Left: Cullin inhibitor MLN4924 is added to engineered T cells to rescue degradation of CAR by STUD. […] Black bars represent each condition with DMSO vehicle control. Middle: Engineered T cells are cocultured with NALM6 target cells for 72 hours and lysis is measured by flow cytometry. Lysis is calculated relative to lysis of NALM6 cells cultured with UnT T cells. Right: Median fluorescence of T cell activation marker CD25 after coculture is measured by antibody stain for CD25 and flow cytometry.
Engineered CD8+ T cells expressing were cocultured with NALM6 target cells and measured activation of the CAR by quantifying target cell lysis and expression of the T cell activation marker CD25.
as §1, with “cytometry. […]” for “cytometry.”

NALM6 target cells = experiment: MLN4924 dose response: ON switch CAR lysis of NALM6 target cells; type: cell-based, human; conditions: MLN4924 1 μM to 0.015625 μM; 72 hours at 37 C; CD8+ T cells with antiCD19BBz CAR-SynZip and memSTUD
Method: We engineer CD8+ primary human T cells that express an antiCD19BBz CAR fused to a SynZip and a STUD to recognizes the SynZip. As a control, the CD8+ primary human T cells that express the same CAR without the SynZip and the SynZip STUD were also engineered. Both these cell lines were cocultured and an untransduced (UnT) control with NALM6 target cells for 72 hours at 37 C in the presence of various concentrations of MLN4924. Lysis of target cells was calculated by each line relative to NALM6 cells cultured alone by flow cytometry.
CD8+ primary human T cells were engineered with an antiCD19BBz CAR fused to a SynZip and a memSTUD that binds the SynZip using the same plasmids outlined in FIG. 14A by lentiviral transduction. As a control, we also lentivirally transduce CD8+ primary human T cells with an antiCD19BBz and a SynZip memSTUD which cannot bind the CAR. These engineered cells and an untransduced control were cocultured with NALM6 target cells for 72 hours at 37 C in the presence of MLN4924 ranging from 1 μM to 0.015625 μM and a DMSO vehicle control. After coculture, target cell lysis was assayed by flow cytometry. Specific target cell lysis of each cell line relative to NALM6 cells cultured alone in the same conditions was then calculated.
Co-culture assays: For all assays, T cells and target cells were co-cultured at a 1:1 ratio with cell numbers varying per assay. […]

[3] = biological target: GFP fused to a heterodimeric SynZip protein complementary to the binding domain on the STUD; experiment: cell-based or functional assay
Sequence of GFP fused to a heterodimeric SynZip protein complementary to the binding domain on the STUD (chain, as listed by the source): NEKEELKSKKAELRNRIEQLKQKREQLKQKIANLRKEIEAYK

Molecule: CO/C1=C\C(C)=C\[C@@H](C)[C@@H](O)[C@@H](C)C/C(C)=C/C=C/[C@H](OC)[C@@H]([C@@H](C)[C@@H](O)[C@H](C)[C@@]2(O)C[C@@H](O)[C@H](C)[C@@H](C(C)C)O2)OC1=O [Bafilomycin A1]
GFP fluorescence change relative to DMSO vehicle control ([1]; 100 nM Bafilomycin A1, 37 C): No changes to GFP fluorescence

Molecule: CC(C)C[C@@H](C=O)NC(=O)[C@H](CC(C)C)NC(=O)[C@H](CC(C)C)NC(=O)OCc1ccccc1 [MG-132] (Cbz-Leu-Leu-Leu-aldehyde)
GFP fluorescence rescue relative to DMSO vehicle control ([1]; 5 μM MG-132, 37 C): can indeed be rescued

Molecule: NS(=O)(=O)OC[C@@H]1C[C@@H](n2ccc3c(N[C@H]4CCc5ccccc54)ncnc32)C[C@@H]1O [MLN4924]
rescue of STUD knockdown of CAR expression [2]: can rescue STUD knockdown of CAR expression | specific target cell lysis by CAR (NALM6 target cells): dose dependent | GFP fluorescence rescue relative to DMSO vehicle control ([1]; 1 μM MLN4924, 37 C): can indeed be rescued

fold change of median normalized GFP fluorescence (GFP/tagBFP), flow cytometry, Jurkat T cells [3]: 42 fold
B1: synZIP STUD (Synthetic Targeter of Ubiquitination and Degradation) (designed binder)
chain: SIAATLENDLARLENENARLERDIANLERDLARLEREEAYFGSGSGSGSGSRRRG
